Five compounds from publication PMC6691772, “Novel phthalimide based analogues: design, synthesis, biological evaluation, and molecular docking studies” (Journal of Enzyme Inhibition and Medicinal Chemistry, 2019) can be followed below.

Structures are written as SMILES. Values after ≈ are worked out from the molar mass of the structure shown.

The subject of series [1] is human liver cancer cell line (HepG-2). In words: MTT anticancer assay. The conditions noted are these: HepG2, HePG-2 cancer liver cell line, mean of three values, read-out: IC50 (Mean ± SEM). The class given is cell-based. A general note: Tetrazolium dyes change colour on reduction, which living cells bring about.
The test system of series [2] is (THLE-2) normal liver cell line. In words: Cytotoxic screening on normal liver cells. The conditions noted are these: Homo sapiens, mean of three values, read-out: IC50 (Mean ± SEM). Format: cell-based.
The subject of series [3] is P. aeruginosa RCMB 010043. In words: Agar well diffusion, inhibition zone. The conditions noted are these: Pseudomonas aeruginosa, RCMB010043, 1 mg/mL, mean of three values, read-out: Mean diameter of inhibition zone (Mean ± SEM). Format: cell-based, Pseudomonas aeruginosa. In general terms: A growth-free zone around the sample is the usual read-out of agar diffusion tests.

For series [4], the system named is E. coli RCMB 010052. In words: Minimum inhibitory concentration, modified agar well diffusion. The class given is cell-based. The conditions noted are these: Escherichia coli, RCMB010052, mean of three values, read-out: MIC (Mean ± SEM).
In series [5] the test system is S. pneumonia RCMB 010010. The series is described as above. The class given is cell-based. The conditions noted are these: Streptococcus pneumoniae, RCMB010010, mean of three values, read-out: MIC (Mean ± SEM).
In series [6] the test system is A. fumigatus RCMB 002568. The experiment in a line: Agar well diffusion, inhibition zone. The class given is cell-based, Aspergillus fumigatus. Further details: key to Mean diameter of inhibition zone (Mean ± SEM): –: -: No activity under the screening conditions. The conditions noted are these: mean of three values; for zone of inhibition at 1000 µg/mL: Aspergillus fumigatus, RCMB002568, 1 mg/mL, read-out: Mean diameter of inhibition zone (Mean ± SEM); for Mean diameter of inhibition zone (Mean ± SEM): 1 mg/mL.

The subject of series [7] is B. subtilis RCMB 010067. In words: Minimum inhibitory concentration, modified agar well diffusion. Format: cell-based. The conditions noted are these: Bacillus subtilis, RCMB010067, mean of three values, read-out: MIC (Mean ± SEM).
The test system of series [8] is E. coli RCMB 010052. The experiment in a line: Agar well diffusion, inhibition zone. Format: cell-based, Escherichia coli. Particulars: Escherichia coli, RCMB010052, 1 mg/mL, mean of three values, read-out: Mean diameter of inhibition zone (Mean ± SEM).
For the next series, the system named is C. albicans RCMB 005036. In words: Agar well diffusion, inhibition zone. The class given is cell-based, Candida albicans. Further details: key: –: -: No activity under the screening conditions. The conditions noted are these: 1 mg/mL, mean of three values.
In series [9] the test system is P. aeruginosa RCMB 010043. The experiment in a line: Minimum inhibitory concentration, modified agar well diffusion. Format: cell-based. The conditions noted are these: Pseudomonas aeruginosa, RCMB010043, mean of three values, read-out: MIC (Mean ± SEM).
In series [10] the test system is B. subtilis RCMB 010067. In words: Agar well diffusion, inhibition zone. The class given is cell-based, Bacillus subtilis. Further details: key to Mean diameter of inhibition zone (Mean ± SEM): –: -: No activity under the screening conditions. The conditions noted are these: mean of three values; for zone of inhibition at 1000 µg/mL: Bacillus subtilis, RCMB010067, 1 mg/mL, read-out: Mean diameter of inhibition zone (Mean ± SEM).

For series [11], the system named is A. fumigatus RCMB 002568. The experiment in a line: Minimum inhibitory concentration, modified agar well diffusion. Particulars: Aspergillus fumigatus, RCMB002568, mean of three values, read-out: MIC (Mean ± SEM). Format: cell-based.
The subject of series [12] is S. pneumonia RCMB 010010. In words: Agar well diffusion, inhibition zone. The class given is cell-based, Streptococcus pneumoniae. Further details: key to Mean diameter of inhibition zone (Mean ± SEM): –: -: No activity under the screening conditions. Particulars: mean of three values; for zone of inhibition at 1000 µg/mL: Streptococcus pneumoniae, RCMB010010, 1 mg/mL, read-out: Mean diameter of inhibition zone (Mean ± SEM).

As usually defined, the IC50 is the concentration needed to halve the response being measured. With `CC[C@]1(O)C[C@@H]2CN(CCc3c([nH]c4ccccc34)[C@@](C(=O)OC)(c3cc4c(cc3OC)N(C)[C@H]3[C@@](O)(C(=O)OC)[C@H](OC(C)=O)[C@]5(CC)C=CCN6CC[C@]43[C@@H]65)C2)C1` [Vinblastine, reference compound], the IC50 is 4.63 ± 1.07 µg/mL (≈ 5.71 µM) in series [1] and 2146.1 ± 0.1 µg/mL (≈ 2650 µM) in series [2].
What is called zone of inhibition is the extent of the growth-free halo in a diffusion test. A word on the MIC: it is the lowest concentration found to suppress growth. By melting point is commonly meant the temperature of the solid-liquid transition. `N#Cc1nnc2c(N=NN3C(=O)c4ccccc4C3=O)c(O)nn2c1N` [Compound 16, 4-Amino-8-[(1,3-dioxo-1,3-dihydro-2H-isoindol-2-yl)diazenyl]-7-hydroxy-pyrazolo[5,1-c][1,2,4]triazine-3-carbonitrile] displayed a melting point of 320 °C. In series [1], the 50% inhibitory concentration (IC50) turned out to be 7.5 ± 0.84 µg/mL (≈ 21.5 µM). Also, in series [3], the zone of inhibition at 1000 µg/mL stood at 18.1 ± 0.6 mm. In addition, the 50% inhibitory concentration (IC50) in series [2] came out at 820.58 ± 0.18 µg/mL (≈ 2350 µM). In the series with E. coli RCMB 010052 [4], the MIC was found to be 1.95 ± 1.49 µg/mL (≈ 5.58 µM). Besides, the MIC in the series with S. pneumonia RCMB 010010 [5] was 3.9 ± 1.24 µg/mL (≈ 11.2 µM). Moreover, the zone of inhibition at 1000 µg/mL with A. fumigatus RCMB 002568 [6] was found to be 22.9 ± 1.3 mm. Further, the MIC in the series on B. subtilis RCMB 010067 [7] amounted to 7.81 ± 1.16 µg/mL (≈ 22.4 µM). Besides, the zone of inhibition at 1000 µg/mL with E. coli RCMB 010052 [8] is 23.7 ± 0.7 mm. Further, the “Mean diameter of inhibition zone (Mean ± SEM)” value in the series on C. albicans RCMB 005036 is “–”. Also, the MIC in [9] is 15.6 ± 1.25 µg/mL (≈ 44.8 µM). Also, in the series on B. subtilis RCMB 010067 [10], the zone of inhibition at 1000 µg/mL amounted to 18.8 ± 1.4 mm. In the series on A. fumigatus RCMB 002568 [11], the MIC is 3.9 ± 0.39 µg/mL (≈ 11.2 µM). Besides, in the series on S. pneumonia RCMB 010010 [12], the zone of inhibition at 1000 µg/mL worked out at 22.8 ± 0.7 mm.
In the case of `CNC(C)C1CCC(N)C(OC2C(N)CC(N)C(OC3OCC(C)(O)C(NC)C3O)C2O)O1` (stereo not shown) [Gentamycin, reference compound], the zone of inhibition at 1000 µg/mL in series [3] came out at 19.7 ± 0.6 mm; in the series with E. coli RCMB 010052 [8] it was 24.9 ± 1.5 mm. The “Mean diameter of inhibition zone (Mean ± SEM)” value in the series on A. fumigatus RCMB 002568 [6], in the series with C. albicans RCMB 005036, with B. subtilis RCMB 010067 [10] (1 mg/mL) and in the series with S. pneumonia RCMB 010010 [12] (1 mg/mL) was “–” each time. Further, the MIC with A. fumigatus RCMB 002568 [11] is 1.95 ± 0.03 µg/mL (≈ 4.08 µM).
The compound `CCOC(=O)c1nnc2c(N=NN3C(=O)c4ccccc4C3=O)c(O)nn2c1C` [Compound 17, Ethyl 8-[(1,3-dioxo-1,3-dihydro-2H-isoindol-2-yl)diazenyl]-7-hydroxy-4-methyl-pyrazolo[5,1-c][1,2,4]triazine-3-carboxylate] displayed a melting point of over 300 °C. Moreover, the 50% inhibitory concentration (IC50) in series [1] was 9.92 ± 1.28 µg/mL (≈ 25.1 µM). In series [3], the zone of inhibition at 1000 µg/mL is 15.5 ± 1.2 mm. Moreover, the 50% inhibitory concentration (IC50) in series [2] is 658.13 ± 0.25 µg/mL (≈ 1660 µM). In addition, the MIC with E. coli RCMB 010052 [4] was 3.9 ± 1.24 µg/mL (≈ 9.87 µM). The minimal inhibitory concentration (MIC) in the series with S. pneumonia RCMB 010010 [5] turned out to be 3.9 ± 0.01 µg/mL (≈ 9.87 µM). The zone of inhibition at 1000 µg/mL in the series on A. fumigatus RCMB 002568 [6] turned out to be 16.9 ± 1.2 mm. Moreover, the minimum inhibitory concentration (MIC) in the series with B. subtilis RCMB 010067 [7] is 3.9 ± 1.38 µg/mL (≈ 9.87 µM). The zone of inhibition at 1000 µg/mL with E. coli RCMB 010052 [8] stood at 20.5 ± 1.3 mm. In addition, the “Mean diameter of inhibition zone (Mean ± SEM)” value in the series with C. albicans RCMB 005036 is listed as “–”. In [9], the minimal inhibitory concentration (MIC) was 62.5 ± 0.71 µg/mL (≈ 158 µM). Also, in the series on B. subtilis RCMB 010067 [10], the zone of inhibition at 1000 µg/mL amounted to 20.2 ± 1.2 mm. In addition, the MIC in the series on A. fumigatus RCMB 002568 [11] is 15.6 ± 1.05 µg/mL (≈ 39.5 µM). The zone of inhibition at 1000 µg/mL with S. pneumonia RCMB 010010 [12] was found to be 21.9 ± 1.2 mm.
`NC1=Nc2c(N=NN3C(=O)c4ccccc4C3=O)c(O)nn2C1` [Compound 6, 2-((2-Amino-6-hydroxy-3H-imidazo[1,2-b]pyrazol-7-yl)diazenyl)isoindoline-1,3-dione]: the melting point lay within 180 to 182 °C. In addition, in series [1], the IC50 stood at 14.4 ± 0.37 µg/mL (≈ 46.3 µM). Further, the zone of inhibition at 1000 µg/mL in series [3] turned out to be 11.9 ± 1.3 mm. Besides, the IC50 in series [2] came to 652.46 ± 0.03 µg/mL (≈ 2100 µM). Moreover, in the series with A. fumigatus RCMB 002568 [6], the “Mean diameter of inhibition zone (Mean ± SEM)” value is listed as “–”. The zone of inhibition at 1000 µg/mL in the series with E. coli RCMB 010052 [8] is 16.3 ± 0.5 mm. Also, the “Mean diameter of inhibition zone (Mean ± SEM)” value with C. albicans RCMB 005036 is on record as “–”. Besides, the zone of inhibition at 1000 µg/mL with B. subtilis RCMB 010067 [10] is 17.8 ± 1.2 mm. Besides, the zone of inhibition at 1000 µg/mL in the series with S. pneumonia RCMB 010010 [12] is 20.8 ± 1.5 mm.
